Measured values as given in US7851474B2, “Dipiperazinyl ketones and related analogues” (Neurogen Corporation, priority 2005, dated 2010).
Like-named read-outs stand apart in the source and are kept apart here.

Molecular target: T1, chimeric human H3 receptor (Homo sapiens, UniProt Q9Y5N1, E19D)
T1 construct: made in house; host or cells: Sf9 insect cells (baculovirus infection); P2 membrane preparation
Test: Chimeric human H3 receptor GTP binding assay (agonist-stimulated GTP-gamma35S binding, Example 7)
Type: biochemical
Settings: read-out: Ki
Outline: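 IC50 values come from non-linear regression of dose-response curves of filter-bound GTP-gamma^35S, counted by scintillation. Membranes were from infected Sf9 cells carrying receptor plus G-protein subunits, 35 μg/tube, with 10 μM GDP present.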

[1] = assay of Example 7, symbol * in column headed Ki of Table II
[2] = Table II "Ki", symbol "*": Ki in the assay of Example 7
[3] = Table II, assay of Example 7, "*" in Ki
[4] = assay of Example 7, "*" in Ki of Table II
[5] = "*" in Ki of Table II, assay of Example 7
[6] = Table II, "*" in Ki, assay of Example 7

T1 sequence (Q9Y5N1 with tags, fused parts or gaps E19D): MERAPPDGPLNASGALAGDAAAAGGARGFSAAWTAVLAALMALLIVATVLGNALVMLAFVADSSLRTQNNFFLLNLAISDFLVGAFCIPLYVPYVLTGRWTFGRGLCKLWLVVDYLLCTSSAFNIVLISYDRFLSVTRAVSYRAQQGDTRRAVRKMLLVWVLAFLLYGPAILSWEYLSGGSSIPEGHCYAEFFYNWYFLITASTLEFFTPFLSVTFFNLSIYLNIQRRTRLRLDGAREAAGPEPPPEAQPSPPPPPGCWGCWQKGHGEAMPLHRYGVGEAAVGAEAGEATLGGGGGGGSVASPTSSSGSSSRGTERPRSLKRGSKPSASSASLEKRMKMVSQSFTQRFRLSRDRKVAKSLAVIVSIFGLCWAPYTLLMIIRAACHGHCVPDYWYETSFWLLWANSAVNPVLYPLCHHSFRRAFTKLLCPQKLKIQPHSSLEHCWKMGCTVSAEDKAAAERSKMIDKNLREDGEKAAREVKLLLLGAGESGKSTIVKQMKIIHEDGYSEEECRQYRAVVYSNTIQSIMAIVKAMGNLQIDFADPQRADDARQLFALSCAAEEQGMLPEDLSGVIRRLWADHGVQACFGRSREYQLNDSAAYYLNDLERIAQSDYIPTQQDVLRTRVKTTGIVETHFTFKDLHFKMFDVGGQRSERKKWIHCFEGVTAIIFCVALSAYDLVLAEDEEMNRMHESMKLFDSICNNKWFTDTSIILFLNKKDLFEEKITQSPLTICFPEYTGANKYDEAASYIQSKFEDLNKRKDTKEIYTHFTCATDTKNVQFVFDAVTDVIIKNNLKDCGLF

CC(=O)c1ccc(N2CCN(CC(=O)N3CCN(C4CCC4)CC3)CC2)cc1 [Compound 315, 1-(4-{4-[2-(4-cyclobutylpiperazin-1-yl)-2-oxoethyl]piperazin-1-yl}phenyl)ethanone]
Ki [1]: < 1 µM

CC(=O)c1ccc(N2CCC(C(=O)OCC(=O)N3CCN(C4CCCC4)CC3)CC2)cc1 [Compound 908, 2-(4-cyclopentylpiperazin-1-yl)-2-oxoethyl 1-(4-acetylphenyl)piperidine-4-carboxylate]
Ki [2]: < 1 µM

CCCCCNC(=O)c1ccc(N2CCN(CC(=O)N3CCN(C4CCC4)CC3)CC2)cc1 [Compound 1135, 4-{4-[2-(4-cyclobutylpiperazin-1-yl)-2-oxoethyl]piperazin-1-yl}-N-pentylbenzamide]
Ki [3]: < 1 µM

C=CCNC(=O)c1ccc(N2CCN(CC(=O)N3CCN(C4CCC4)CC3)CC2)nc1 [Compound 1262, N-allyl-6-{4-[2-(4-cyclobutylpiperazin-1-yl)-2-oxoethyl]piperazin-1-yl}nicotinamide]
Ki [4]: < 1 µM

CCOC(=O)c1ccc(-c2ccc(N3CCN(CC(=O)N4CCN(C5CCC5)CC4)CC3)cc2)cc1 [Compound 1199, ethyl 4′-{4-[2-(4-cyclobutylpiperazin-1-yl)-2-oxoethyl]piperazin-1-yl}biphenyl-4-carboxylate]
Ki [4]: < 1 µM

Cc1ccc(-c2cnc(N3CCN(CC(=O)N4CCN(C5CCC5)CC4)CC3)cn2)c(F)c1 [Compound 920, 2-{4-[2-(4-cyclobutylpiperazin-1-yl)-2-oxoethyl]piperazin-1-yl}-5-(2-fluoro-4-methylphenyl)pyrazine]
Ki [2]: < 1 µM

CCOc1ccc(C(=O)NC2CCN(CC(=O)N3CCN(C4CCC4)CC3)CC2)cc1 [Compound 1221, N-{1-[2-(4-cyclobutylpiperazin-1-yl)-2-oxoethyl]piperidin-4-yl}-4-ethoxybenzamide]
Ki [4]: < 1 µM

Cc1ccccc1OC(C)C(=O)N1CCN(CC(=O)N2CCN(C3CCC3)CC2)CC1 (stereo not shown) [Compound 573, 1-cyclobutyl-4-({4-[2-(2-methylphenoxy)propanoyl]piperazin-1-yl}acetyl)piperazine]
Ki [5]: < 1 µM

COc1cc(N2CCN(CC(=O)N3CCN(C4CCCC4)CC3)CC2)ccc1Cl [Compound 346, 1-(4-chloro-3-methoxyphenyl)-4-[2-(4-cyclopentylpiperazin-1-yl)-2-oxoethyl]piperazine]
Ki [1]: < 1 µM

Cc1ccc(-c2ccc(N3CCN(CC(=O)N4CCN(C5CCC5)CC4)CC3)cc2)cc1 [Compound 784, 1-cyclobutyl-4-{[4-(4′-methylbiphenyl-4-yl)piperazin-1-yl]acetyl}piperazine]
Ki [2]: < 1 µM

O=C(CN1CCN(c2cnc(-c3ccc(Cl)cc3Cl)cn2)CC1)N1CCN(C2CCC2)CC1 [Compound 968, 2-{4-[2-(4-cyclobutylpiperazin-1-yl)-2-oxoethyl]piperazin-1-yl}-5-(2,4-dichlorophenyl)pyrazine]
Ki [3]: < 1 µM

CN(C)C1CCN(CC(=O)N2CCN(C3CCCC3)CC2)C1 (stereo not shown) [Compound 444, 1-[2-(4-cyclopentylpiperazin-1-yl)-2-oxoethyl]-N,N-dimethylpyrrolidin-3-amine]
Ki [1]: < 1 µM

O=C(c1ccncc1)c1ccc(N2CCN(CC(=O)N3CCN(C4CCC4)CC3)CC2)cc1 [Compound 250, (4-{4-[2-(4-cyclobutylpiperazin-1-yl)-2-oxoethyl]piperazin-1-yl}phenyl)(pyridin-4-yl)methanone]
Ki [1]: < 1 µM

CCC(C)N1CCN(C(=O)CN2CCN(c3ccc(OC)cc3OC)CC2)CC1 (stereo not shown) [Compound 862, 1-sec-butyl-4-{[4-(2,4-dimethoxyphenyl)piperazin-1-yl]acetyl}piperazine]
Ki [2]: < 1 µM

O=C(c1ccccc1)c1ccc(N2CCN(CC(=O)N3CCN(C4CCC4)CC3)CC2)cc1 [Compound 248, (4-{4-[2-(4-cyclobutylpiperazin-1-yl)-2-oxoethyl]piperazin-1-yl}phenyl)(phenyl)methanone]
Ki [1]: < 1 µM

CC1CCN(C(=O)c2ccc(N3CCN(CC(=O)N4CCN(C5CCC5)CC4)CC3)cc2)CC1 [Compound 649, 1-cyclobutyl-4-[(4-{4-[(4-methylpiperidin-1-yl)carbonyl]phenyl}piperazin-1-yl)acetyl]piperazine]
Ki [6]: < 1 µM

CC(C)(C)CNC(=O)c1ccc(N2CCN(CC(=O)N3CCN(C4CCC4)CC3)CC2)nc1 [Compound 1187, 6-{4-[2-(4-cyclobutylpiperazin-1-yl)-2-oxoethyl]piperazin-1-yl}-N-(2,2-dimethylpropyl) nicotinamide]
Ki [4]: < 1 µM

CCCc1ccc(-c2cnc(N3CCN(CC(=O)N4CCN(C5CCC5)CC4)CC3)cn2)cc1 [Compound 931, 2-{4-[2-(4-cyclobutylpiperazin-1-yl)-2-oxoethyl]piperazin-1-yl}-5-(4-propylphenyl)pyrazine]
Ki [2]: < 1 µM

CCNC(=O)c1ccc(N2CCN(CC(=O)N3CCN(C4CCC4)CC3)CC2)nc1 [Compound 1174, 6-{4-[2-(4-cyclobutylpiperazin-1-yl)-2-oxoethyl]piperazin-1-yl}-N-ethylnicotinamide]
Ki [4]: < 1 µM

O=C(CN1CCN(c2cccc(-c3ccccc3)c2)CC1)N1CCN(C2CCC2)CC1 [Compound 493, 1-biphenyl-3-yl-4-[2-(4-cyclobutylpiperazin-1-yl)-2-oxoethyl]piperazine]
Ki [5]: < 1 µM

CC(C)CNC(=O)c1cccc(N2CCN(CC(=O)N3CCN(C4CCC4)CC3)CC2)c1 [Compound 1074, 3-{4-[2-(4-cyclobutylpiperazin-1-yl)-2-oxoethyl]piperazin-1-yl}-N-isobutylbenzamide]
Ki [3]: < 1 µM

O=C(CN1CCC2(CC1)c1ccccc1C(=O)N2C1CCC1)N1CCN(C2CCC2)CC1 [Compound 984, 2-cyclobutyl-1′-[2-(4-cyclobutylpiperazin-1-yl)-2-oxoethyl]spiro[isoindole-1,4′-piperidin]-3(2H)-one]
Ki [3]: < 1 µM

COc1ccc(Cl)cc1-c1ccc(N2CCN(CC(=O)N3CCN(C4CCC4)CC3)CC2)cc1 [Compound 365, 1-(5′-chloro-2′-methoxybiphenyl-4-yl)-4-[2-(4-cyclobutylpiperazin-1-yl)-2-oxoethyl]piperazine]
Ki [1]: < 1 µM

COc1ccc(-c2cccc(N3CCN(CC(=O)N4CCN(C5CCC5)CC4)CC3)c2)cc1F [Compound 749, 1-cyclobutyl-4-{[4-(3′-fluoro-4′-methoxybiphenyl-3-yl)piperazin-1-yl]acetyl}piperazine]
Ki [6]: < 1 µM

O=C(CN1CCN(c2ccccc2)CC1)N1CCN(C2CCC2)CC1 [Compound 657, 1-cyclobutyl-4-[(4-phenylpiperazin-1-yl)acetyl]piperazine]
Ki [6]: < 1 µM

COc1ccc(-c2ccc(N3CCN(CC(=O)N4CCN(C5CCC5)CC4)CC3)nn2)c(OC)c1 [Compound 1042, 3-{4-[2-(4-cyclobutylpiperazin-1-yl)-2-oxoethyl]piperazin-1-yl}-6-(2,4-dimethoxyphenyl) pyridazine]
Ki [3]: < 1 µM

CC(=O)c1ccc(N2CCN(CC(=O)N3CCN(C4CCC4)CC3)C(=O)C2)cc1 [Compound 1096, 4-(4-acetylphenyl)-1-[2-(4-cyclobutylpiperazin-1-yl)-2-oxoethyl]piperazin-2-one]
Ki [3]: < 1 µM

O=C(CN1CCN(c2ccc(-c3cccc(C(F)(F)F)c3)nn2)CC1)N1CCN(C2CCC2)CC1 [Compound 1063, 3-{4-[2-(4-cyclobutylpiperazin-1-yl)-2-oxoethyl]piperazin-1-yl}-6-[3-(trifluoromethyl)phenyl] pyridazine]
Ki [3]: < 1 µM

CC(=O)c1ccc(N2CCN(CC(=O)N3CCN(C4CCCCC4)CC3)CC2)cc1 [Compound 321, 1-(4-{4-[2-(4-cyclohexylpiperazin-1-yl)-2-oxoethyl]piperazin-1-yl}phenyl)ethanone]
Ki [1]: < 1 µM

CC(C)c1cccc(-c2cnc(N3CCN(CC(=O)N4CCN(C5CCC5)CC4)CC3)cn2)c1 [Compound 926, 2-{4-[2-(4-cyclobutylpiperazin-1-yl)-2-oxoethyl]piperazin-1-yl}-5-(3-isopropylphenyl)pyrazine]
Ki [2]: < 1 µM

COc1ccc(OC)c(-c2cnc(N3CCN(CC(=O)N4CCN(C5CCC5)CC4)CC3)cn2)c1 [Compound 953, 2-{4-[2-(4-cyclobutylpiperazin-1-yl)-2-oxoethyl]piperazin-1-yl}-5-(2,5-dimethoxyphenyl) pyrazine]
Ki [3]: < 1 µM

CSc1ccc(C(=O)NC2CCN(CC(=O)N3CCN(C4CCC4)CC3)CC2)cc1 [Compound 1222, N-{1-[2-(4-cyclobutylpiperazin-1-yl)-2-oxoethyl]piperidin-4-yl}-4-(methylthio)benzamide]
Ki [4]: < 1 µM

CCC(C)NC(=O)c1ccc(N2CCN(CC(=O)N3CCN(C4CCC4)CC3)CC2)cc1 (stereo not shown) [Compound 1204, N-(sec-butyl)-4-{4-[2-(4-cyclobutylpiperazin-1-yl)-2-oxoethyl]piperazin-1-yl}benzamide]
Ki [4]: < 1 µM

CCOC(=O)c1ccc(-c2ccc(N3CCN(CC(=O)N4CCN(C5CCC5)CC4)CC3)nn2)cc1 [Compound 1198, ethyl 4-(6-{4-[2-(4-cyclobutylpiperazin-1-yl)-2-oxoethyl]piperazin-1-yl}pyridazin-3-yl)benzoate]
Ki [4]: < 1 µM

O=C1NC2(CCN(CC(=O)N3CCN(C4CCC4)CC3)CC2)c2ccccc21 [Compound 434, 1′-[2-(4-cyclobutylpiperazin-1-yl)-2-oxoethyl]spiro[isoindole-1,4′-piperidin]-3(2H)-one]
Ki [1]: < 1 µM

Cc1cc(C)cc(-c2ccc(N3CCN(CC(=O)N4CCN(C5CCC5)CC4)CC3)cc2)c1 [Compound 743, 1-cyclobutyl-4-{[4-(3′,5′-dimethylbiphenyl-4-yl)piperazin-1-yl]acetyl}piperazine]
Ki [6]: < 1 µM

COc1ccc(CN2C(=O)c3ccccc3C23CCN(CC(=O)N2CCN(C4CCC4)CC2)CC3)c(OC)c1 [Compound 425, 1′-[2-(4-cyclobutylpiperazin-1-yl)-2-oxoethyl]-2-(2,4-dimethoxybenzyl)spiro[isoindole-1,4′-piperidin]-3(2H)-one]
Ki [1]: < 1 µM
